Reference: US9346798B2, “Dihydrobenzoxazine and tetrahydroquinoxaline sodium channel inhibitors” (AMGEN INC., priority 2012, dated 2016)

Target: T1, Nav 1.7 (Homo sapiens (Human), UniProt Q15858)
Test: Nav 1.7 in vitro PX assay, PatchXpress whole cell voltage clamp
Assay type: cell-based
Details: HEK293; values marked *; 4.9 μM; HEK 293 cells stably transfected with human Nav1.7; read-out: Nav 1.7 PX percent inhibition at 4.9 μM
Description: Nav 1.7 In Vitro PX Assay
HEK 293 cells stably transfected with human Nav1.7 were recorded in whole cell voltage clamp mode with the PatchXpress automated electrophysiology system (Molecular Devices, LLC, Sunnyvale, Calif.). Compound effects were measured on a partially inactivated state of the sodium channel. Cells were clamped to a holding potential yielding 20 to 50% inactivation. To elicit sodium current, channels were activated by pulsing to −10 mV for 20 msec. This voltage protocol was repeated at a rate of 0.1 Hz throughout the experiment. A single concentration of test compound was applied to cells for a duration of 3 minutes. Peak sodium current was measured at the end of the compound addition period to determine percent inhibition. Three to five cells were tested per concentration, and IC50 curves were fitted to percent inhibition as a function of concentration.

T1 sequence (Q15858 whole entry): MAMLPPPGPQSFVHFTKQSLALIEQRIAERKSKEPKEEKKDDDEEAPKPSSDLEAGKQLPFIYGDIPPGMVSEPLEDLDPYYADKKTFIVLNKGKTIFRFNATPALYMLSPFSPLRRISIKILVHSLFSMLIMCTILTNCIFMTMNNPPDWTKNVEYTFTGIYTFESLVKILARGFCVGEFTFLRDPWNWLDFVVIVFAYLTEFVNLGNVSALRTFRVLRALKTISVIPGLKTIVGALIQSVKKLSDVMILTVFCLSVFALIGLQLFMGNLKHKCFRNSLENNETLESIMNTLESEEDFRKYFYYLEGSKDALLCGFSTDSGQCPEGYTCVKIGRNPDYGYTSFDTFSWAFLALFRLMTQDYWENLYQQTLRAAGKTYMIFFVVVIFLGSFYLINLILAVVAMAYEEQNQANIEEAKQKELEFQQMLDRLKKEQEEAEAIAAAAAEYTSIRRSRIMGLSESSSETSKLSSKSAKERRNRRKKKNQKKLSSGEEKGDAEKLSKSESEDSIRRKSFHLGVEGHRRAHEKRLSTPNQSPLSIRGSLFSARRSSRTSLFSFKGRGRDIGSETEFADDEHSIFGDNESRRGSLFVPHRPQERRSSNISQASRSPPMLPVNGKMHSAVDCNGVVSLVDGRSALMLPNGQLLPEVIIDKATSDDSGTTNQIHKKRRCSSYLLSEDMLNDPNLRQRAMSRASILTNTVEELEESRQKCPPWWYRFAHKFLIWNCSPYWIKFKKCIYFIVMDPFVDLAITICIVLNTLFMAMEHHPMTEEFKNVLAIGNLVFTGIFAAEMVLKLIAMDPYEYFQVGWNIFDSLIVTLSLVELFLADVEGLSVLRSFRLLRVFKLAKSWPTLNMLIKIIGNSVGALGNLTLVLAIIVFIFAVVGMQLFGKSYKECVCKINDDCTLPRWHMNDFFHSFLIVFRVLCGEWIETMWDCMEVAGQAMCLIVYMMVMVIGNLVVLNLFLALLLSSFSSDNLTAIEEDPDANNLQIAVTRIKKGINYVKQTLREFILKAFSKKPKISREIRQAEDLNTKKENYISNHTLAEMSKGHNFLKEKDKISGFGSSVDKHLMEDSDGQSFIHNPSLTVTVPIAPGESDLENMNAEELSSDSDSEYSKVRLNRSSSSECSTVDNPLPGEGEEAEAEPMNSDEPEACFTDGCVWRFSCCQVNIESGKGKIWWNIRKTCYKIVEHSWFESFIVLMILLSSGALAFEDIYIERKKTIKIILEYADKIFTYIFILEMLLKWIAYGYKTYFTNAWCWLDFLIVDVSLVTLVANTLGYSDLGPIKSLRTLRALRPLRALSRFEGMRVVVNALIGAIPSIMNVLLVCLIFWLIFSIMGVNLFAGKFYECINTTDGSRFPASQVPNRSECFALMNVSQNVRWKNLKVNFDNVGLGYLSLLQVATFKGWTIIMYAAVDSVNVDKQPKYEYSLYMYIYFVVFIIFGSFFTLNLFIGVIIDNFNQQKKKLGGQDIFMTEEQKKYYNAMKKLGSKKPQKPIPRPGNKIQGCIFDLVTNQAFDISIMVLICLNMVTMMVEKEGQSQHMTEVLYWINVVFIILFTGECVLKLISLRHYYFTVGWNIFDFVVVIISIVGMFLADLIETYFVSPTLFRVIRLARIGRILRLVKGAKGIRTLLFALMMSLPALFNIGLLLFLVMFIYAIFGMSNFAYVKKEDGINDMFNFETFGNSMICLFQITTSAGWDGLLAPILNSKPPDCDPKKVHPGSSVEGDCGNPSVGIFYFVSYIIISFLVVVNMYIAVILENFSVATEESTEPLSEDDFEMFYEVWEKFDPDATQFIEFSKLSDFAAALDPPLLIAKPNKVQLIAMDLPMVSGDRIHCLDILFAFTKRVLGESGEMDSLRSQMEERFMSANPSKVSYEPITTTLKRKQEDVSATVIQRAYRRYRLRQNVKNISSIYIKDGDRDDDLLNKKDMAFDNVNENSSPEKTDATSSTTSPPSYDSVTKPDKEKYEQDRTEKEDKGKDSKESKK

**Q.** With `CC(=O)N1CCN(c2ccc(C(F)(F)F)cc2Cl)c2ccc(S(=O)(=O)Nc3ncns3)cc21` [Example 20, 4-Acetyl-1-(2-Chloro-4-(Trifluoromethyl)Phenyl)-N-(1,2,4-Thiadiazol-5-Yl)-1,2,3,4-Tetrahydroquinoxaline-6-Sulfonamide] as the compound, how does the inhibition at 4.9 µM read?
**A.** 33.2%

Same assay, conditions: HEK 293 cells stably transfected with human Nav1.7; partially inactivated state (20 to 50% inactivation)

**Q.** With `O=S(=O)(Nc1nccs1)c1ccc2c(c1)OCCN2c1ccc(Cl)cc1C1=CCNCC1` [Example 52, 4-(4-Chloro-2-(1,2,3,6-Tetrahydropyridin-4-Yl)Phenyl)-N-(Thiazol-2-Yl)-3,4-Dihydro-2H-Benzo[B][1,4]Oxazine-7-Sulfonamide 2,2,2-Trifluoroacetate] as the compound, how does the IC50 read?
**A.** 0.0355 µM

**Q.** `COc1cc(C(F)(F)F)ccc1N1C(=O)[C@H](C)Oc2cc(S(=O)(=O)Nc3nccs3)ccc21` [Example 264, (S)-4-(2-methoxy-4-(trifluoromethyl)phenyl)-2-methyl-3-oxo-N-(thiazol-2-yl)-3,4-dihydro-2H-benzo[b][1,4]oxazine-7-sulfonamide] was tested. Which IC50 did it give?
**A.** 0.596 µM

**Q.** Which IC50 does the source give for `COc1cc(C(F)(F)F)ccc1N1C(=O)[C@@H](C)Oc2cc(S(=O)(=O)Nc3nccs3)ccc21` [Example 265, (R)-4-(2-Methoxy-4-(Trifluoromethyl)Phenyl)-2-Methyl-3-Oxo-N-(Thiazol-2-Yl)-3,4-Dihydro-2H-Benzo[B][1,4]Oxazine-7-Sulfonamide] here?
**A.** 0.728 µM

**Q.** Which IC50 does the source give for `COc1cc(C(F)(F)F)ccc1N1C(=O)C(C)(C)Oc2cc(S(=O)(=O)Nc3nccs3)ccc21` [Example 266, 4-(2-Methoxy-4-(Trifluoromethyl)Phenyl)-2,2-Dimethyl-3-Oxo-N-(Thiazol-2-Yl)-3,4-Dihydro-2H-Benzo[B][1,4]Oxazine-7-Sulfonamide] here?
**A.** 5.62 µM

Target: Nav 1.5 (Homo sapiens (Human), UniProt Q14524)
Sequence (Q14524 whole entry): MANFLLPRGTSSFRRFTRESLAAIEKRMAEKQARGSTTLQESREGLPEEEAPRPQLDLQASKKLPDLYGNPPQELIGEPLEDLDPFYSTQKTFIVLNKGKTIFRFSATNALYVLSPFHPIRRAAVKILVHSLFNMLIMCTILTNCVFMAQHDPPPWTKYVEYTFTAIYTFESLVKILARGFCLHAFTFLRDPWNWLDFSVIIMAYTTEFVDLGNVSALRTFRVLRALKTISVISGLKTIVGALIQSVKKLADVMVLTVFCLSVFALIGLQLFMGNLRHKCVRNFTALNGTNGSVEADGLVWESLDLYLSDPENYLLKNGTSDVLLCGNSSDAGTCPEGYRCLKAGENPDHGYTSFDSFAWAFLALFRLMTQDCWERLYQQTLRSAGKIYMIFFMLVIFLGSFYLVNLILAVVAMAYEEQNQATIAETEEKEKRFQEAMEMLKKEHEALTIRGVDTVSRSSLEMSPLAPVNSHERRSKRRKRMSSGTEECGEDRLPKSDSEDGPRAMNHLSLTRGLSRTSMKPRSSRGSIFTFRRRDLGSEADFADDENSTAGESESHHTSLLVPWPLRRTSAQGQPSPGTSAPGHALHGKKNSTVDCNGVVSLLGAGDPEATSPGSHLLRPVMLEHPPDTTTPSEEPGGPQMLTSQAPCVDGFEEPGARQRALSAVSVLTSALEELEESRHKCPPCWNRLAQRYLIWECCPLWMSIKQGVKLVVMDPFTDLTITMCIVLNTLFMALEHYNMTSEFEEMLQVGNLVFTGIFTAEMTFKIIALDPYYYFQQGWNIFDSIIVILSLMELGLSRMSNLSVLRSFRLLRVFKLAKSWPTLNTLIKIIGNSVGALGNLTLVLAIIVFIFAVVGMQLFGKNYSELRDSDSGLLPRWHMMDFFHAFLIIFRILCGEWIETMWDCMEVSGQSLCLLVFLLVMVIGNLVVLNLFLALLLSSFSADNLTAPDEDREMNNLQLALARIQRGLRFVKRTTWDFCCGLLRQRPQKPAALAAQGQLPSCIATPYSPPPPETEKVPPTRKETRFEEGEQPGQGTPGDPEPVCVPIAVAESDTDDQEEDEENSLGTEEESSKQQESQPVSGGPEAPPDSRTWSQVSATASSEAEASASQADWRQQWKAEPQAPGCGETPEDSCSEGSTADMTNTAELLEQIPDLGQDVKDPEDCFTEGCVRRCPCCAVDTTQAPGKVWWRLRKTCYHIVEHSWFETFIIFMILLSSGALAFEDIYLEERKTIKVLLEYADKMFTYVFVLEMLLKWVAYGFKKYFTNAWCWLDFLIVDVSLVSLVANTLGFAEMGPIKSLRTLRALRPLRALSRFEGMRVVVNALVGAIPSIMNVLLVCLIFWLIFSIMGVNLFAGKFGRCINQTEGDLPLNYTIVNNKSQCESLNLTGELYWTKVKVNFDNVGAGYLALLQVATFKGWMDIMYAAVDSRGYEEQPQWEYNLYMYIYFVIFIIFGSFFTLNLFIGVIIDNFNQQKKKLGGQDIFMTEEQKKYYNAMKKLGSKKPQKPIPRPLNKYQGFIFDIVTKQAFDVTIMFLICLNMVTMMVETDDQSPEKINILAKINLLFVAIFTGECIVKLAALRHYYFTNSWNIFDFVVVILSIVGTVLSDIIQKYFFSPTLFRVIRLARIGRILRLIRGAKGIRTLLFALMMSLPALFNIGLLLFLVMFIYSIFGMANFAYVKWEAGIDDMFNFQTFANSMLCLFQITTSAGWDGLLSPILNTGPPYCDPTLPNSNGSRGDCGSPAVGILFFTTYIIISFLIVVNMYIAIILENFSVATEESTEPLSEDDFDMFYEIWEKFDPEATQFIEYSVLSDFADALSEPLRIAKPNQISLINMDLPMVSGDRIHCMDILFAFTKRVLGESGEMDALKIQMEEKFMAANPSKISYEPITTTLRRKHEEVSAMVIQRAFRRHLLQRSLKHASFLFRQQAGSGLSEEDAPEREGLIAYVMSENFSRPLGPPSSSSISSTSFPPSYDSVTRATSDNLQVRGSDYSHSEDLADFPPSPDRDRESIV
Test: Nav 1.5 in vitro assay, IonWorks Quattro (IWQ) population patch-clamp
Assay type: cell-based
Details: HEK 293 cells stably transfected with Nav 1.5; 26th pulse to -20 mV
Description: (§1) Nav 1.7 and Nav 1.5 In Vitro Assays
(§2) HEK 293 cells stably transfected with either Nav 1.7 or with Nav 1.5 were recorded in population patch-clamp mode with the IonWorks® Quattro automated electrophysiology system in accordance with the manufacturer's specifications (Molecular Devices, LLC, Sunnyvale, Calif.). Sodium channel currents were measured in response to a train of depolarizations that induced successively greater inactivation.
(§3) Cells were held at −110 mV for three seconds (Nav 1.7) or half a second (Nav 1.5) from a holding voltage of −15 mV, then put through a series of 26 pulses of 150 msec duration to −20 mV at a frequency of 5 Hz. Cells were then left unclamped for a period of 3 to 8 minutes while a single concentration of test compound was added. Cells were then reclamped and put through the same voltage protocol. Current at the end of the 26th pulse to −20 mV was subtracted from the peak current evoked by the 26th pulse to −20 mV to correct for leak current. Percent block was calculated for each concentration in duplicate, and IC50 curves were fitted to percent block as a function of concentration.

**Q.** `CC(C)(C)OC(=O)N1CC=C(c2cc(C(F)(F)F)ccc2N2CCOc3cc(S(=O)(=O)Nc4ncns4)ccc32)CC1` [Example 6, Tert-Butyl 4-(2-(7-(N-(1,2,4-Thiadiazol-5-Yl)Sulfamoyl)-2H-Benzo[B][1,4]Oxazin-4(3H)-Yl)-5-(Trifluoromethyl)Phenyl)-5,6-Dihydropyridine-1(2H)-Carboxylate] was tested. Which IC50 did it give?
**A.** 2.29 µM

**Q.** `Cc1cnc(NS(=O)(=O)c2ccc3c(c2)OCCN3c2ccc(C(F)(F)F)cc2Cl)s1` [Example 12, 4-(2-Chloro-4-(Trifluoromethyl)Phenyl)-N-(5-Methylthiazol-2-Yl)-3,4-Dihydro-2H-Benzo[B][1,4]Oxazine-7-Sulfonamide] was tested. Which IC50 did it give?
**A.** > 10 µM

**Q.** Which IC50 does the source give for `O=S(=O)(Nc1nccs1)c1ccc2c(c1)OCCN2c1ccc(C(F)(F)F)cc1C1=CCNCC1` [Example 38, 4-(2-(1,2,3,6-Tetrahydropyridin-4-Yl)-4-(Trifluoromethyl)Phenyl)-N-(Thiazol-2-Yl)-3,4-Dihydro-2H-Benzo[B][1,4]Oxazine-7-Sulfonamide 2,2,2-Trifluoroacetate] here?
**A.** 0.254 µM

**Q.** For `CN1CC=C(c2cc(C(F)(F)F)ccc2N2CCOc3cc(S(=O)(=O)Nc4ccncn4)ccc32)CC1` [Example 51, 4-(2-(1-Methyl-1,2,3,6-Tetrahydropyridin-4-Yl)-4-(Trifluoromethyl)Phenyl)-N-(Pyrimidin-4-Yl)-3,4-Dihydro-2H-Benzo[B][1,4]Oxazine-7-Sulfonamide], which IC50 is on record?
**A.** > 10 µM

**Q.** Which IC50 does the source give for `O=S(=O)(Nc1nccs1)c1ccc2c(c1)OCCN2c1cccc2scnc12` [Example 72, 4-(Benzo[D]Thiazol-4-Yl)-N-(Thiazol-2-Yl)-3,4-Dihydro-2H-Benzo[B][1,4]Oxazine-7-Sulfonamide 2,2,2-Trifluoroacetate] here?
**A.** > 10 µM

**Q.** For `COc1cccc(N2CCOc3cc(S(=O)(=O)Nc4nccs4)ccc32)c1` [Example 77, 4-(3-Methoxyphenyl)-N-(Thiazol-2-Yl)-3,4-Dihydro-2H-Benzo[B][1,4]Oxazine-7-Sulfonamide 2,2,2-Trifluoroacetate], which IC50 is on record?
**A.** > 10 µM

**Q.** Which IC50 does the source give for `Cc1ccc(N2CCOc3cc(S(=O)(=O)Nc4nccs4)ccc32)cc1F` [Example 82, 4-(3-Fluoro-4-Methylphenyl)-N-(Thiazol-2-Yl)-3,4-Dihydro-2H-Benzo[B][1,4]Oxazine-7-Sulfonamide 2,2,2-Trifluoroacetate] here?
**A.** > 10 µM

**Q.** Which IC50 does the source give for `O=S(=O)(Nc1nccs1)c1ccc2c(c1)OCCN2c1cc(F)ccc1F` [Example 83, 4-(2,5-Difluorophenyl)-N-(Thiazol-2-Yl)-3,4-Dihydro-2H-Benzo[B][1,4]Oxazine-7-Sulfonamide 2,2,2-Trifluoroacetate] here?
**A.** > 10 µM

**Q.** For `O=S(=O)(Nc1nccs1)c1ccc2c(c1)OCCN2c1ncc(Cl)cc1Cl` [Example 121, 4-(3,5-Dichloropyridin-2-yl)-N-(thiazol-2-yl)-3,4-dihydro-2H-benzo[b][1,4]oxazine-7-sulfonamide], which IC50 is on record?
**A.** > 10 µM

**Q.** For `COc1ccc(N2CCOc3cc(S(=O)(=O)Nc4nccs4)ccc32)c(C#N)c1` [Example 153, 4-(2-Cyano-4-Methoxyphenyl)-N-(Thiazol-2-Yl)-3,4-Dihydro-2H-Benzo[B][1,4]Oxazine-7-Sulfonamide 2,2,2-Trifluoroacetate], which IC50 is on record?
**A.** > 10 µM

**Q.** `O=S(=O)(Nc1nccs1)c1ccc2c(c1)OCCN2c1ccc(-n2ccnc2)cc1` [Example 154, 4-(4-(1H-Imidazol-1-Yl)Phenyl)-N-(Thiazol-2-Yl)-3,4-Dihydro-2H-Benzo[B][1,4]Oxazine-7-Sulfonamide 2,2,2-Trifluoroacetate] was tested. Which IC50 did it give?
**A.** > 10 µM

**Q.** `O=S(=O)(Nc1nccs1)c1ccc2c(c1)OCCN2c1ccccc1C(F)(F)F` [Example 157, N-(Thiazol-2-Yl)-4-(2-(Trifluoromethyl)Phenyl)-3,4-Dihydro-2H-Benzo[B][1,4]Oxazine-7-Sulfonamide 2,2,2-Trifluoroacetate] was tested. Which IC50 did it give?
**A.** > 10 µM

**Q.** Which IC50 does the source give for `O=C1CCCc2ccc(N3CCOc4cc(S(=O)(=O)Nc5nccs5)ccc43)cc21` [Example 160, 4-(8-Oxo-5,6,7,8-Tetrahydronaphthalen-2-Yl)-N-(Thiazol-2-Yl)-3,4-Dihydro-2H-Benzo[B][1,4]Oxazine-7-Sulfonamide 2,2,2-Trifluoroacetate] here?
**A.** > 10 µM

**Q.** Which IC50 does the source give for `Cc1cc(N2CCOc3cc(S(=O)(=O)Nc4nccs4)ccc32)cc(C)c1N(C)C` [Example 161, 4-(4-(Dimethylamino)-3,5-Dimethylphenyl)-N-(Thiazol-2-Yl)-3,4-Dihydro-2H-Benzo[B][1,4]Oxazine-7-Sulfonamide 2,2,2-Trifluoroacetate] here?
**A.** 3.49 µM

**Q.** How did the IC50 turn out when `CCOc1cccc(N2CCOc3cc(S(=O)(=O)Nc4nccs4)ccc32)c1` [Example 162, 4-(3-Ethoxyphenyl)-N-(Thiazol-2-Yl)-3,4-Dihydro-2H-Benzo[B][1,4]Oxazine-7-Sulfonamide 2,2,2-Trifluoroacetate] was run?
**A.** > 10 µM

**Q.** Which IC50 does the source give for `Cc1ccc(N2CCOc3cc(S(=O)(=O)Nc4nccs4)ccc32)cc1Cl` [Example 163, 4-(3-Chloro-4-Methylphenyl)-N-(Thiazol-2-Yl)-3,4-Dihydro-2H-Benzo[B][1,4]Oxazine-7-Sulfonamide 2,2,2-Trifluoroacetate] here?
**A.** 3.14 µM

**Q.** How did the IC50 turn out when `N#Cc1ccc(F)c(N2CCOc3cc(S(=O)(=O)Nc4nccs4)ccc32)c1` [Example 164, 4-(5-Cyano-2-Fluorophenyl)-N-(Thiazol-2-Yl)-3,4-Dihydro-2H-Benzo[B][1,4]Oxazine-7-Sulfonamide 2,2,2-Trifluoroacetate] was run?
**A.** > 10 µM

**Q.** For `Cc1c(Cl)cccc1N1CCOc2cc(S(=O)(=O)Nc3nccs3)ccc21` [Example 169, 4-(3-Chloro-2-Methylphenyl)-N-(Thiazol-2-Yl)-3,4-Dihydro-2H-Benzo[B][1,4]Oxazine-7-Sulfonamide 2,2,2-Trifluoroacetate], which IC50 is on record?
**A.** > 10 µM

**Q.** For `O=S(=O)(Nc1nccs1)c1ccc2c(c1)OCCN2c1cccc(Cl)c1Cl` [Example 171, 4-(2,3-Dichlorophenyl)-N-(Thiazol-2-Yl)-3,4-Dihydro-2H-Benzo[B][1,4]Oxazine-7-Sulfonamide 2,2,2-Trifluoroacetate], which IC50 is on record?
**A.** 6.44 µM

**Q.** For `O=S(=O)(Nc1nccs1)c1ccc2c(c1)OCCN2c1ccc(F)cc1F` [Example 176, 4-(2,4-Difluorophenyl)-N-(Thiazol-2-Yl)-3,4-Dihydro-2H-Benzo[B][1,4]Oxazine-7-Sulfonamide 2,2,2-Trifluoroacetate], which IC50 is on record?
**A.** > 10 µM

**Q.** Which IC50 does the source give for `N#Cc1ccc(F)cc1N1CCOc2cc(S(=O)(=O)Nc3nccs3)ccc21` [Example 188, 4-(2-Cyano-5-Fluorophenyl)-N-(Thiazol-2-Yl)-3,4-Dihydro-2H-Benzo[B][1,4]Oxazine-7-Sulfonamide] here?
**A.** 3.62 µM

Target: T1, Nav 1.7
Test: Nav 1.7 in vitro assay, IonWorks Quattro (IWQ) population patch-clamp
Assay type: cell-based
Details: HEK293; values marked *; 4.9 μM; HEK 293 cells stably transfected with Nav 1.7; read-out: Nav 1.7 IWQ percent inhibition at 4.9 μM
Description: as §1, §2, §3

**Q.** For `Cc1cnc(NS(=O)(=O)c2ccc3c(c2)OCCN3c2ccc(C(F)(F)F)cc2Cl)s1` [Example 12, 4-(2-Chloro-4-(Trifluoromethyl)Phenyl)-N-(5-Methylthiazol-2-Yl)-3,4-Dihydro-2H-Benzo[B][1,4]Oxazine-7-Sulfonamide], which inhibition at 4.9 µM is on record?
**A.** 24.5%

Same assay, conditions: HEK 293 cells stably transfected with Nav 1.7; 26th pulse to -20 mV

**Q.** Which IC50 does the source give for `CC(=O)N1CCN(c2ccc(C(F)(F)F)cc2Cl)c2ccc(S(=O)(=O)Nc3ncns3)cc21` [Example 20, 4-Acetyl-1-(2-Chloro-4-(Trifluoromethyl)Phenyl)-N-(1,2,4-Thiadiazol-5-Yl)-1,2,3,4-Tetrahydroquinoxaline-6-Sulfonamide] here?
**A.** 7.6 µM

**Q.** `O=S(=O)(Nc1nccs1)c1ccc2c(c1)OCCN2c1ccc(Cl)cc1C1=CCNCC1` [Example 52, 4-(4-Chloro-2-(1,2,3,6-Tetrahydropyridin-4-Yl)Phenyl)-N-(Thiazol-2-Yl)-3,4-Dihydro-2H-Benzo[B][1,4]Oxazine-7-Sulfonamide 2,2,2-Trifluoroacetate] was tested. Which IC50 did it give?
**A.** 0.0045 µM
